In patent publication US8809389B2, “Substituted alkynyl phenoxy compounds as new synergists in pesticidal compositions” (Endura S.p.A., priority 2009, dated 2014):

Key:
[1] = target: T1, purified resistance-associated esterase (E4) (Myzus persicae, UniProt P35501); test: Esterase interference assay (indirect determination of esterase inhibition); format: biochemical; details: no esterase = 0%, uninhibited E4 = 100%
T1 construct: 5 g of aphids (stored at −20° C.) were homogenised in 0.02 M phosphate buffer pH 7.0; from tissue; host or cells: whole Myzus persicae aphids, clone 794JZ; homogenate purified over G-25 and DEAE Sepharose Fast Flow
T1 sequence (P35501 24-552): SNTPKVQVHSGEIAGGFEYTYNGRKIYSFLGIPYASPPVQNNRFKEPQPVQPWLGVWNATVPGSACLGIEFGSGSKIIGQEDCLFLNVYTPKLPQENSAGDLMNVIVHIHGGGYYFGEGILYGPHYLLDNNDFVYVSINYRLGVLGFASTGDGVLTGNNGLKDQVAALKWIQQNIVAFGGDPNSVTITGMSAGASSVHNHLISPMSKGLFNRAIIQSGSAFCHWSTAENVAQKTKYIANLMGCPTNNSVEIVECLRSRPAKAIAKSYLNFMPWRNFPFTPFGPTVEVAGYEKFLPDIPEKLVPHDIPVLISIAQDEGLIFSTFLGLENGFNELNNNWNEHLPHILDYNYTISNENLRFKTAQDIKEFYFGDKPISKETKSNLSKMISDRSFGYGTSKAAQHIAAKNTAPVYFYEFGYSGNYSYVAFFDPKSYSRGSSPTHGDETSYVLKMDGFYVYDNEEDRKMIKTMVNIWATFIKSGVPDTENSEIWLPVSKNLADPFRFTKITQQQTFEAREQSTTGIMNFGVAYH
From the text: Measuring the in vitro inhibition is not straight forward, as synergists may bind to a site other than the active site.
The esterase used was the well-characterised resistance associated esterase purified from M. persicae, E4, (aphid clone: 794JZ) as per Devonshire (1977) with some modifications(Devonshire A L, The properties of a carboxylesterase from the peach-potato aphid, Myzus persicae (Sulz.) and its role in conferring insecticide resistance. Biochem J 167: 675-683 (1977)). Briefly, 5 g of aphids (stored at −20° C.) were homogenised in 0.02 M phosphate buffer pH 7.0 and centrifuged at 20 000 g for 10 min. The supernatant was passed through a G-25 column using 0.02M Tris/HCl, pH 8.5 buffer. Unretarded fractions containing esterase activity were further chromatographed through DEAF Sepharose Fast Flow (Amersham Biosciences) and eluted with a linear 0-0.35 M NaCl gradient in 500 ml of Tris/HCl as above. Fractions containing carboxylesterase activity in the form of E4 were concentrated, desalted, and buffer exchanged to 0.02 M phosphate pH 7.0 for storage.
Interactions of the purified resistance-associated esterase (E4) with Compound of Example 2, Compound of Example 3, Compound of Example 4, Compound of Example 9 and Compound of Example 11 were performed using the ‘esterase interference assay’, as described by Khot et al., with some modifications. Devonshire A L, The properties of a carboxylesterase from the peach-potato aphid, Myzus persicae (Sulz.) and its role in conferring insecticide resistance. Biochem J 167: 675-683 (1977)). Briefly, stock solutions of novel synergists (3 mM in acetone) were pre-incubated with pure E4, to give a final concentration of 0.03 mM, for 16 h at 4° C. Aliquots (15 μl ) of E4, E4+Compound of Example 2, E4+Compound of Example 3, E4+Compound of Example 4, E4+Compound of Example 9 and E4+Compound of Example 11 were incubated for 1 h with 60 μl of serial dilutions of azamethiphos in 0.02M phosphate buffer, pH 7, in separate wells of a NUNC microplate. Aliquots (25 p1) of house fly head homogenate (source of AChE) were added to each well and incubated for 15 minutes at room temperature. E4 in acetone and buffer only served as the positive and the negative controls respectively. AChE activity was measured at 405 nm using a Tmax kinetic microplate reader (Molecular Devices, Menlo Park, Calif.). Readings were taken automatically for 10 min at 10 s intervals. The rate (mOD min^−1) was calculated by the integrated software, Softmax Pro 4.6. All treatments were performed in triplicate.
No added esterase is giving 0% esterase protection and uninhibited esterase (E4) is giving 100% protection.
The materials and procedure as stated in Example 13, paragraphs 13.1, 13.1.2, 13.1.2.1 and 13.1.2.2. have been used and the following results have been obtained: […]

[2] = tested on: pollen beetle, Meligethes aeneus; test: Discriminating dose bioassay: α-cypermethrin in mixture with synergist; format: in vivo; details: for % Mortality: 24 h
Protocol: Two pyrethroid resistant populations originating from two different areas in Poland ‘Rogalin'and lebork’ were collected in July 2008. A putative susceptible population, UK population, was also collected in July 2008 in Hertfordshire, UK. All populations were collected from oilseed rape contained adults only and were kept at room temperature before assays were performed.
Bioassays incorporating the compounds (Compound of Example 2 and Compound of Example 3) dissolved in acetone, were carried out using a diagnostic concentration of α-cypermethrin derived from the above full dose response bioassays in a mixture of 0.01 g L^−1 of the compounds. The concentration of α-cypermethrin used for the discriminating dose bioassays was 0.3 ppm α-cypermethrin for the two polish populations, Rogalin and Lebork and 0.03 ppm α-cypermethrin for UK population. Vials treated with the compounds only, dissolved in acetone and acetone only were used as controls. Ten to 15 replicates were used for each treatment depending on insect numbers within the population. Compounds concentrations chosen conferred no mortality in preliminary bioassays.
Treated vials including the pollen beetles were stored in constant environment facilities at 18±2° C. and 16L: 8D. All bioassays were scored at an endpoint of 24 h after exposure to the insecticide. Insects incapable of coordinated movement (after gentle touching with a pencil brush if necessary) were scored as dead.

[3] = tested on: P450 enzymes (oxidases) of pollen beetle homogenate; test: Oxidase assay: 7-ethoxycoumarin O-deethylation inhibition in pollen beetle homogenate; format: biochemical, Meligethes aeneus; details: 3 μl of 10 mM compound, enzyme plus acetone = 100
Protocol: The ability of the novel compositions comprising the synergists of Formula (I) to inhibit P450 enzymes, a major mechanism conferring resistance to xenobiotics, was measured using pollen beetle homogenate.
Approximately 50 non-sexed adult pollen beetle from each population were homogenised on ice in 1 ml 0.1 M sodium phosphate buffer, pH 7.6, containing, 1 mM EDTA, 1 mM DTT, 1 mM PTU, 1 mM PMSF and centrifuged at 10 000×g for 10 min. The resulting supernatant was used as the enzyme source.
The O-deethylation inhibition by compounds of Example 2 or 3 was measured using 7-ethoxycoumarin (7-EC) according to Ullrich and Weber (Ullrich V and Weber P, The O-dealkylation of 7-ethoxycoumarin by liver microsomes. Z Physiol Chem 353: 1171-1177 (1972)) and adapted to the microplate format as described by DeSousa (De Sousa G, Cuany A, Brun A, Amichot M, Rahmani R, Berge J B, A microfluorometric method for measuring ethoxycoumarin-O-deethylase activity on individual Drosophila melanogaster abdomens: interest for screening resistance in insect populations Analyt. Biochem 229: 86-91 (1995)). Briefly, 7-EC was dissolved in ethanol to make a 20 mM stock solution and diluted by the addition of 0.1 M, pH 7.8 sodium phosphate buffer to give a concentration of 0.5 mM. Fifty microliters of pollen beetle enzyme were added to separate wells of a microplate, followed by the addition of 3 μl 10 mM of either compounds of Example 2 or 3 or acetone only. After 10 min incubation in room temperature, 80 μl 0.5 mM 7-EC was added following by another 5 min at 30° C. The reaction initiated by the addition of 10 μl 9.6 mM NADPH in 0.1 M sodium phosphate, pH 7.8. Enzyme activity was measured in a Victor^2 1420 multilabel counter (Wallac, Milton Keynes, UK) for 60 min with readings taken every 5 min, using an excitation wavelength of 370 nm and an emission wavelength of 460 nm. All assays were performed in triplicate.
The ability of the composition comprising the compounds of Examples 2 and 3 to inhibit oxidases derived from the 3 different pollen beetle populations is presented in Table 7.

CC#CCOc1ccc2c(c1)OCO2 [Example 2, 5-(but-2-ynyloxy)-benzo[1.3]dioxole]
Esterase protection (%) after pre-incubation with compound ([1]; Table 2 (Example 13), 0.03 mM compound pre-incubated with E4 16 h at 4° C.): 10.36%
Esterase protection (%) after pre-incubation with compound ([1]; second 'TABLE 3' (Example 16), procedure as Example 13): 10.35%
% Mortality ([2]; Lebork, 0.3 ppm α-cypermethrin in mixture with 0.01 g L^−1 synergist): 85.21%
Mortality ([2]; Rogalin and Lebork, 0.3 ppm α-cypermethrin in mixture with 0.01 g L^−1 synergist): around 85%
% Mortality ([2]; Rogalin, 0.3 ppm α-cypermethrin in mixture with 0.01 g L^−1 synergist): 80.56%
% Mortality ([2]; UK population, 0.03 ppm α-cypermethrin in mixture with 0.01 g L^−1 synergist): 71.68%
Mortality with the compound only ([2]; synergist only, without α-cypermethrin (data not shown)): No mortality
Inhibition of 7-ethoxycoumarin O-deethylation (%) ([3]; Lebork homogenate): −38.98%
Inhibition of 7-ethoxycoumarin O-deethylation (%) ([3]; Rogalin homogenate): −11.25%
Inhibition of 7-ethoxycoumarin O-deethylation (%) ([3]; UK population homogenate): −9.3%
